Test results published in PMC12061237, “Berberine is a Novel Mitochondrial Calcium Uniporter Inhibitor that Disrupts MCU‐EMRE Assembly” (Advanced Science, 2025).

Target: T1, GST-MCU (recombinant) (Homo sapiens, UniProt Q8NE86)
T1 construct: recombinant GST fusion
T1 sequence (Q8NE86 51-351): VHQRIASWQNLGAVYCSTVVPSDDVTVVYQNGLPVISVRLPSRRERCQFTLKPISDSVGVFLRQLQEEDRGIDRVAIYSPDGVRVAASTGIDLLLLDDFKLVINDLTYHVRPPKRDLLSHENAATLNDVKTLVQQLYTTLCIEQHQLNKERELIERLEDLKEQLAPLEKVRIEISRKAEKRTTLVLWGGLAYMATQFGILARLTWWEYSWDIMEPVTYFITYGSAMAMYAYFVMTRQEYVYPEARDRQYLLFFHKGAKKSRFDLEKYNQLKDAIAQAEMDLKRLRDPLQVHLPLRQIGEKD
Experiment: in vitro biotin pull-down, immunoblot
Assay type: binding
Conditions: biotin-labelled compound 2 µg, 4 °C; competed by free berberine

COc1ccc2cc3[n+](cc2c1OC(=O)CCCCCNC(=O)CCCC[C@@H]1SC[C@@H]2NC(=O)N[C@@H]21)CCc1cc2c(cc1-3)OCO2 [Biotin-Berberine]
in vitro biotin pull-down, immunoblot: Biotin‐BBR directly binds to recombinant glutathione‐S‐transferase (GST)‐MCU
